Laboratory results published in patent US9808470B2, “Estrogenic components for use in the treatment of neurological disorders” (UNIVERSITE DE LIEGE, priority 2012, dated 2017).

Tests used:
Assay type in all cases: in vivo
[1] = tested on: intact cells in hippocampus and cortex; assay: Ex.3 neuroprotective HIE rat model: intact cell counting
Description: Paraformaldehyde-fixed paraffin embedded samples of the removed brains were coronally sectioned at the same level of the hippocampus region in accordance to the Paxinos rat brain atlas (Paxinos and Watson 2007. In: The rat brain in stereotaxic coordinates, 6th edition). Thickness of sections was 5 μm. Hematoxylin-eosin staining was performed. Briefly, sections were deparaffinized in xylene and rehydrated in graded ethanol concentrations before staining. Slides were stained with hematoxylin, rinsed for a few seconds in water, then placed in 1% eosin and washed, dehydrated, and coverslipped.
Intact cell counting was performed on hematoxylin-eosin-stained sections of the rat pups brains at magnification 400× in 3 fields of the respective brain area. Countings were performed in cortex and hippocampus (regions: dentate gyrus (DG), subgranular zone (SGZ), cornu ammonis (CA1, CA2/CA3)). The sections were analyzed with the aid of a microscope (Olympus BX51, Olympus, Tokyo, Japan), an image scanner (DotSlide Digital Virtual Microscopy, Olympus, Germany) and ImageJ software (NIH, US).
Intact cells are uninjured. Injured cells are characterized by a pale eosinophilic staining along with non-uniform nuclear densities-shrunken, condensed, or pale and enlarged.
(§1) Newborn rat pups were assigned to one of the following 6 groups from postnatal day 4: Sham group (n=24), Vehicle group (n=14), E4 1 mg/kg/per day group (n=11), E4 5 mg/kg/per day group (n=14), E4 10 mg/kg/per day group (n=14), or E4 50 mg/kg/per day group (n=19). From postnatal day 4, rat pups were intraperitoneally injected either vehicle (Vehicle group) or E4 (1, 5, 10, or 50 mg/kg/per day in accordance to the E4 group assignment) or neither vehicle nor E4 (Sham group). At day 7, 30 minutes after last injection, animals were anesthetized with isoflurane (induction, 3.0%; maintenance, 1.5%), and the rat pups from Vehicle and E4 groups passed through surgery encompassing left common carotid artery double ligation and cut. After the procedure, the pups were returned to their dams and were allowed to recover for 1 hour. The pups were then placed in the humidified hypoxic in vivo cabinet (CoyLab, Grass Lake, Mich., USA). Hypoxia was produced by the inhalation of 11%-8% of oxygen balanced by nitrogen at decreased concentration of oxygen for 20 minutes, followed by inhalation of 8% oxygen and 92% nitrogen at constant concentration for 35 minutes. All the manipulations were performed at 37° C. The Sham group went through similar procedures without left common carotid artery ligation followed by hypoxia nor injection. Rat pups recovered with their dams and reared normally until being sacrificed at postnatal day 14.

[2] = tested on: vascular endothelial growth factor (VEGF); assay: Ex.3 neuroprotective HIE rat model: VEGF staining
Description: The sections were heated in 10 mmol/L citrate buffer (pH 6.0) at 100° C. for 10 minutes. Endogenous peroxidase activity was blocked with 3% hydrogen peroxide for 10 minutes and after a second blocking with 5% normal goat serum, the sections were incubated with anti-doublecortin (DCX) antibody, diluted 1:1000 (rabbit polyclonal antibody; Abcam, Cambridge, UK) and anti-vascular endothelial growth factor (VEGF) antibody, diluted 1:100 (mouse monoclonal antibody; Abcam, Cambridge, UK) overnight at 4° C. After rinsing, Alexa Fluor® goat anti-rabbit, diluted 1:1000 and Alexa Fluor® goat anti-mouse, diluted 1:1000 (Invitrogen Inc., Ghent, Belgium) were added and sections were incubated 1 h at room temperature. Mounting medium containing 4′,6-diamidino-2-phenylindole (DAPI) for fluorescent studies was used (Vector Laboratories). Samples were analyzed with the aid of a microscope (Olympus Vanox AHBT3, Olympus), and the ImageJ software (NIH). The percentage of positively stained cells was quantified as a sum of positively stained either DCX or VEGF cells divided by the total number of DAPI positive cells expressed in percentage.
as §1

S100B = assay: Ex.3 neuroprotective HIE rat model: blood serum S100B ELISA; settings: PND14
Description: Blood was withdrawn, centrifuged and the serum samples were stored at −80° C.
ELISAs for detecting the brain damage markers S100B protein (Catalog# CSB-E08066r, Cusabio Biotech Co., LTD, China), and glial fibrillary acidic protein (GFAP) (Catalog# E90068Ra, Uscn Life sciences Inc., China) in blood serum samples were performed according to the manufacturers' recommendations.
as §1, with “Hypoxia was produced by the inhalation of 11%-8% of oxygen balanced by nitrogen at decreased concentration of oxygen for 20 minutes, followed by inhalation of 8% oxygen and 92% nitrogen at constant concentration for 35 minutes. All the manipulations were performed at 37° C. The Sham group went through similar procedures without left common carotid artery ligation followed by hypoxia nor injection. Rat pups recovered with their dams and reared normally until being sacrificed at postnatal day 14.” left out

[3] = 1 mg/kg E4 ip PND4-7 before HI, CA2/CA3
[4] = 5 mg/kg E4 ip PND4-7 before HI, DG
[5] = 10 mg/kg E4 ip PND4-7 before HI, CA1

C[C@]12CC[C@@H]3c4ccc(O)cc4CC[C@H]3[C@@H]1[C@@H](O)[C@@H](O)[C@@H]2O [E4, 1,3,5(10)-estratrien-3,15α,16α,17β-tetrol]
number of intact cells per visual field ([1]; 1 mg/kg E4 ip PND4-7 before HI, CA1): 43.2±2.435
number of intact cells per visual field [1, 3]: 32.8±2.808
number of intact cells per visual field ([1]; 1 mg/kg E4 ip PND4-7 before HI, SGZ): 35.6±2.75
number of intact cells per visual field [1, 4]: 121.0±8.098
number of intact cells per visual field ([1]; 5 mg/kg E4 ip PND4-7 before HI, SGZ): 42.846±3.884
number of intact cells per visual field [1, 5]: 57.4±4.566
number of intact cells per visual field ([1]; 10 mg/kg E4 ip PND4-7 before HI, SGZ): 47.6±4.672
number of intact cells per visual field ([1]; 50 mg/kg E4 ip PND4-7 before HI, CA2/CA3): 53.0±4.7
number of intact cells per visual field ([1]; 50 mg/kg E4 ip PND4-7 before HI, SGZ): 30.714±3.615
number of intact cells per visual field ([1]; 50 mg/kg E4 ip PND4-7 before HI, cortex): 76.286±3.962
percentage of VEGF positively stained cells [2, 3]: 34.1±6.855%
percentage of VEGF positively stained cells ([2]; 1 mg/kg E4 ip PND4-7 before HI, DG): 43.5±2.083%
percentage of VEGF positively stained cells [2, 4]: 46.0±4.361%
percentage of VEGF positively stained cells [2, 5]: 37.4±7.645%
percentage of VEGF positively stained cells ([2]; 10 mg/kg E4 ip PND4-7 before HI, DG): 47.0±5.362%
percentage of VEGF positively stained cells ([2]; 10 mg/kg E4 ip PND4-7 before HI, cortex): 46.2±7.646%
percentage of VEGF positively stained cells ([2]; 50 mg/kg E4 ip PND4-7 before HI, DG): 46.0±4.465%
concentration of S100B in blood serum (S100B; 10 mg/kg E4 ip PND4-7 before HI, vs sham, 5 mg/kg E4 and 50 mg/kg E4): significantly higher
concentration of S100B in blood serum (S100B; 50 mg/kg E4 ip PND4-7 before HI): 361 ± 32.914 pg/mL
